# Source: US11564913B2, “Compositions and methods for treating cancer” (Children's Hospital Medical Center, priority 2019, dated 2023)
# How the values were obtained:
# [1] = system: ST8814, MCF7, MDA-MB-231, and T47D cells; test: Cellular GI50s (summary of cell proliferation); assay type: cell-based
# Source text: Applicants tested IODVA1's ability to inhibit the proliferation of cells harboring activated Ras and therefore its ability to recapitulate the compound obtained from the NCI. Applicants chose the NF1-associated malignant peripheral nerve sheath tumors (MPNST) cell line ST8814, which is characterized by active wild-type Ras (Basu et al., 1992; Mahller et al., 2006) and the triple negative breast cancer cell line MDA-MB-231 carrying the oncogenic KRAS^G13D mutation (Hollestelle et al., 2007). In addition, applicants used the non-transformed mammary epithelial cell line MCF10A (RAS^WT immortalized by a spontaneous t(3;9)(3p13;9p22) translocation that deletes the CDKN2A gene, also known as p16) and the non-invasive estrogen receptor (ER) and progesterone receptor (PR) positive RAS^WT breast cancer cell line MCF7 (wild-type p53) and T47D (mutant p53). Cells were grown in growth media containing IODVA1 at concentrations between 0.1 and 10 μM or vehicle control and cell number was counted using the trypan blue exclusion method. […] Appreciable decrease in proliferation of non-transformed MCF10A cells was not observed.
# IODVA1 has two pyridine groups attached to a central imidazole group. […] To test this hypothesis, applicants evaluated the potential of IODVA1 to interfere with the ability of 369 recombinant wild-type kinases to hydrolyze ATP.
# [2] = system: MDA-MB-231 cells; test: Spheroid formation, hanging drop method; assay type: cell-based, human; settings: before trituration
# Protocol: FIG. 6: IODVA1 inhibits cell-substratum and cell-cell interactions. (A) IODVA1 impedes spreading of MCF7 and MDA-MB-231 cells on fibronectin. MCF7, T47D, and MDA-MB-231 cells were incubated on fibronectin coated coverslips for 10 min, then further incubated with the indicated concentrations of IODVA1 for 30 min in serum-free media, fixed and observed by bright field microscopy. Areas of single cells were calculated from 6 random fields (no less than 300 cells total per treatment group). Results shown are mean±s.e.m. of a single experiment and are representative of three independent experiments. (B) Effects of IODVA1 treatment on spheroid formation in MCF10A, MCF7, T47D, and MDA-MB-231 cells. […] Aggregates and spheroids were dissociated with accutase and trituration, and the number of live cells was determined by trypan blue exclusion. […]
# Spheroids were formed by the hanging drop method or using ultra-low attachment (ULA) plates (Corning). […] Spheroid formation was monitored daily and imaged using EVOS microscope (Life Technologies). For assessment of attachment-free proliferation, the contents of the well were transferred into an Eppendorf tube, centrifuged at 100×g for 5 min, dissociated into a single cell suspension using trituration and Accutase (Invitrogen) treatment at room temperature and counted using trypan blue exclusion.
compound,measurement,setting,value
"OC1(c2ccccn2)N=C(Nc2nc3ccccc3[nH]2)N=C1c1ccccn1 (centres unmarked) [IODVA1, (Z)-2-((1H-benzo[d]imidazol-2-yl)imino)-4,5-di(pyridin-2-yl)-2,5-dihydro-1H-imidazol-5-ol]",GI50,[1],500 to 1000 nM
same,aggregate formation,[2],not affected
